Experimental data as given in ChEMBL document CHEMBL3751710, “Cyclic RGD peptidomimetics containing 4- and 5-amino-cyclopropane pipecolic acid (CPA) templates as dual αVβ3 and α5β1 integrin ligands” (Bioorg Med Chem, 2016).

Experiments:
Integrin alpha-5/beta-1 = Integrin alpha-5/beta-1 (Homo sapiens, UniProt P05556+P08648); assay: Binding affinity to integrin alpha5/beta1 heterodimer in human K562 cells assessed as inhibition of integrin-mediated human K562 cell adhesion to fibronectin incubated for 30 mins in presence of MnCl2; assay type: cell-based
Integrin alpha-V/beta-3 = Integrin alpha-V/beta-3 (Homo sapiens, UniProt P05106+P06756); assay: Binding affinity to integrin alphav/beta3 heterodimer in human M21 cells assessed as inhibition of integrin-mediated human M21 cell adhesion to vitronectin incubated for 30 mins in presence of MnCl2; assay type: cell-based
Sequence of Integrin alpha-V/beta-3 (P05106 27-788 limits assumed): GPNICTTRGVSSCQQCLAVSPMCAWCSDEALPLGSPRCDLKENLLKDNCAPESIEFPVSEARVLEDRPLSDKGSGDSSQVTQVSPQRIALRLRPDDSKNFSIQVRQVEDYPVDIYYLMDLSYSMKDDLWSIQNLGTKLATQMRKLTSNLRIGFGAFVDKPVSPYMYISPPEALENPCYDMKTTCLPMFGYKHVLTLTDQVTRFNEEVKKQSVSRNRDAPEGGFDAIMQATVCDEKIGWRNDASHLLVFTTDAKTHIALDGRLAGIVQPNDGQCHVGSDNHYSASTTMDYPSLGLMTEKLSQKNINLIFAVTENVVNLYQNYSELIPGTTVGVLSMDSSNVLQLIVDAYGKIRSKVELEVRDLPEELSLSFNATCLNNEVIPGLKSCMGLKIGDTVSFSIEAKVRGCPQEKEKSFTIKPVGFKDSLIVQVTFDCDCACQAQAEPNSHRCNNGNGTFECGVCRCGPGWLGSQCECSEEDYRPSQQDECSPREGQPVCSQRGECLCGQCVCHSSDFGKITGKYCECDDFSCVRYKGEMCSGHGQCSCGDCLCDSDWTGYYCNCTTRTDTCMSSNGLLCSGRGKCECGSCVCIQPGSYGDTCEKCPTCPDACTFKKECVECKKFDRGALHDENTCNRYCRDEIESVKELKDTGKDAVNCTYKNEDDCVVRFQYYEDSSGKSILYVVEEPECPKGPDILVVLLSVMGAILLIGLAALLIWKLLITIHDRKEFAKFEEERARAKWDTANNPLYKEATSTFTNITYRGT
Sequence of Integrin alpha-V/beta-3 (P06756 31-889 limits assumed): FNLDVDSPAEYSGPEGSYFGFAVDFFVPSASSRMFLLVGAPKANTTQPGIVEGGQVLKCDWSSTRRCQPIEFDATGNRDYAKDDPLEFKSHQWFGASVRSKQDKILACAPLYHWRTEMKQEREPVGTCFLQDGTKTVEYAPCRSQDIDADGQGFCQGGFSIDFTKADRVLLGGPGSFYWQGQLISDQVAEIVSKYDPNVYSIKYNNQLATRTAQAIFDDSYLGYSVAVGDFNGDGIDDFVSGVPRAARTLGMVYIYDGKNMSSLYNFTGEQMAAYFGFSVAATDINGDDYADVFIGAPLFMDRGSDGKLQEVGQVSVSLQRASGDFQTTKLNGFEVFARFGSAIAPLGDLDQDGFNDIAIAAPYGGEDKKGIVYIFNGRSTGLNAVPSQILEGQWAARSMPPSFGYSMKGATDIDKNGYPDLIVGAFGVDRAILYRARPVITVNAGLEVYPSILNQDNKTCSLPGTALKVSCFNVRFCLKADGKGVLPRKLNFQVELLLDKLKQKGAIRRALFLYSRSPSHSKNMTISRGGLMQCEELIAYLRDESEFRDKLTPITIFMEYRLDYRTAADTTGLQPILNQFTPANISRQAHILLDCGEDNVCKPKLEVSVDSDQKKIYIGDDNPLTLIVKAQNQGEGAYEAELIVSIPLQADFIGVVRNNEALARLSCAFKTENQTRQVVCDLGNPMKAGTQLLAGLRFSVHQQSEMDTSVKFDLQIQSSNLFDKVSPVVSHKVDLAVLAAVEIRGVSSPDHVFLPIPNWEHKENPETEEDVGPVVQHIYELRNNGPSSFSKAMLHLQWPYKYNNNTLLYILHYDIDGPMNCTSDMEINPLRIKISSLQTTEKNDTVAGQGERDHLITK
Sequence of Integrin alpha-V/beta-3 (P06756 891-1048 limits assumed): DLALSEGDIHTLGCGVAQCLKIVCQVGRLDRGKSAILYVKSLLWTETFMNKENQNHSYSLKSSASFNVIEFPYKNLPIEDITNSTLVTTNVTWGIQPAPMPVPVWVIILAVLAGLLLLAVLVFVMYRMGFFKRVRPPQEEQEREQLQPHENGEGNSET

Sequence of Integrin alpha-5/beta-1 (P05556 21-798 limits assumed): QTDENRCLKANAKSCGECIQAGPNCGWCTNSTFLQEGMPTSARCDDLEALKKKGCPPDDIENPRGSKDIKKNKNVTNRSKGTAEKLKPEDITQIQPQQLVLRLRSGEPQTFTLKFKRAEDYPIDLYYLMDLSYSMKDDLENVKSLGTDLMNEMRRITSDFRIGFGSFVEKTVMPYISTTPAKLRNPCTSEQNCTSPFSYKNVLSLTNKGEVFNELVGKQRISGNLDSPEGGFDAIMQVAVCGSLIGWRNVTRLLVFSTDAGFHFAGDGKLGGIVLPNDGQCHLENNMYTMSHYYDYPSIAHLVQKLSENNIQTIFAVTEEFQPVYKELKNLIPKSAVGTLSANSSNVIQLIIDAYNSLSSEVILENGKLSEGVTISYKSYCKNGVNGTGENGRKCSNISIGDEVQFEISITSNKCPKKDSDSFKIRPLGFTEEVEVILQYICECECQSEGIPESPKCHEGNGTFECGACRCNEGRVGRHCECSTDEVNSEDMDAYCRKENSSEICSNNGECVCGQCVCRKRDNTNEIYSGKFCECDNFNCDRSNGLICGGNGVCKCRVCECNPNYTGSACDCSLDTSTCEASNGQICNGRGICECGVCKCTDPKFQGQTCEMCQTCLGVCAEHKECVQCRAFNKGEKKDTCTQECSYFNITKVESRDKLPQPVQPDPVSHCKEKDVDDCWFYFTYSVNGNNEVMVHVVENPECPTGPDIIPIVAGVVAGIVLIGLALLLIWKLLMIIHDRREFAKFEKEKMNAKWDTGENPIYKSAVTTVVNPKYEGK
Sequence of Integrin alpha-5/beta-1 (P08648 42-894 limits assumed): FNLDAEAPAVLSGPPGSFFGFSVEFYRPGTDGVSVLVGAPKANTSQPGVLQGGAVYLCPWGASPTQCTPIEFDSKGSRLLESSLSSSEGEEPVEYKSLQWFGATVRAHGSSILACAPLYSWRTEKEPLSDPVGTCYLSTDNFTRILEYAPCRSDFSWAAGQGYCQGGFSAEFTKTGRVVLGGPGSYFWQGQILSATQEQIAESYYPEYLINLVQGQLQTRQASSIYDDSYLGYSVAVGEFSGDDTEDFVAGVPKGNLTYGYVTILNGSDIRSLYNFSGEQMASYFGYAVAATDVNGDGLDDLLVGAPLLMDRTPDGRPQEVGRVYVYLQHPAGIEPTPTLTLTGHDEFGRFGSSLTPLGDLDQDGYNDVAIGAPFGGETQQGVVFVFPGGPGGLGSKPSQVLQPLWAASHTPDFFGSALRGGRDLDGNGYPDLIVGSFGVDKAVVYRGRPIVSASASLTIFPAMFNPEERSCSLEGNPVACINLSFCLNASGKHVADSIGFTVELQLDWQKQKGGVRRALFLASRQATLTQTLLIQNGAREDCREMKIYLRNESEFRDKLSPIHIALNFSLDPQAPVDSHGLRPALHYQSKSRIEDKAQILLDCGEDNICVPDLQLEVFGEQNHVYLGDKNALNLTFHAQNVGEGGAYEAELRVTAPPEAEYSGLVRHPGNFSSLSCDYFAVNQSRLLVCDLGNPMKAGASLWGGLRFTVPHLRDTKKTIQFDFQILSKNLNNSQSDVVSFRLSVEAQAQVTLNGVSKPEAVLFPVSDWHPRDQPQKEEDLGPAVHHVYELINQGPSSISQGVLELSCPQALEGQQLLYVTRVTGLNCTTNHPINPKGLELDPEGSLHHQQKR
Sequence of Integrin alpha-5/beta-1 (P08648 895-1049 limits assumed): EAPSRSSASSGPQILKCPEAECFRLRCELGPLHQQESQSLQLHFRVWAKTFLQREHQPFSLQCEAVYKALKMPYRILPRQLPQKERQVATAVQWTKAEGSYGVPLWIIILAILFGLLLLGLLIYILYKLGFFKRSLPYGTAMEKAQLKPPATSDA

SMILES	IC50 (Integrin alpha-5/beta-1) [nM]	IC50 (Integrin alpha-V/beta-3) [nM]
COC(=O)N1C[C@H]2C[C@H]3C[C@]31C(=O)N[C@@H](CCCNC(=N)N)C(=O)NCC(=O)N[C@@H](CC(=O)O)C(=O)N2	15	34
COC(=O)N1CC[C@H]2NC(=O)[C@H](CC(=O)O)NC(=O)CNC(=O)[C@H](CCCNC(=N)N)NC(=O)[C@@]13C[C@@H]23	26	2.4
